Measured values published in patent publication US7161064B2, “Method for producing stably transformed duckweed using microprojectile bombardment” (North Carolina State University, priority 1997, dated 2007).

Key:
Type in all cases: cell-based
Lemna gibba G3 = assay: Callus induction from Lemna gibba G3 fronds on solid medium with plant growth regulators
Method: Duckweed fronds were grown in liquid Hoagland's medium (Hoagland and Snyder, Proc. Amer. Soc. Hort. Sci. 30, 288 (1933)) containing 3% sucrose for two weeks at 23° C. under a 16 hr light/8 hr dark photoperiod with light intensity of approximately 40 μmol/m^2·sec prior to experimentation. For callus induction, eighteen, 100 ml portions of Murashige and Skoog basal medium (Murashige and Skoog, Physiol. Plant. 15, 473 (1962)) containing 3% sucrose, 0.15% Gelrite and 0.4% Difco Bacto-agar were prepared with 2,4-D concentrations of 10, 20 and 50 μM and BA concentrations of 0, 0.01, 0.1, 1.0, 2.0, and 10.0 μM. All media were pH adjusted to 5.8, autoclaved at 121° C. for 20 minutes, cooled, and each 100 ml was poured into 4, 100 mm×15 mm petri dishes.
(§1) A three 2,4-D concentrations×six BA concentrations, full-factorial experimental design (18 treatments in total) with four replications, with one petri dish per replication and 5 fronds per petri dish was used. For callus induction, 5 individual duckweed fronds were placed abaxial side down on each plate of medium. The 72 plates were incubated at 23° C., for 27 days under a 16 hr light/8 hr dark photoperiod with light intensity of approximately 40 μmol/m^2·sec. After 27 days the duckweed tissue was transferred to fresh media of the same type and incubation was continued another 35 days under the same temperature and light culturing conditions.
Duckweed fronds were grown in liquid Hoagland's medium containing 3% sucrose for two weeks at 23° C. under a 16 hr light/8 hr dark photoperiod with light intensity of approximately 40 μmol/m^2·sec. prior to experimentation. For callus induction, forty 100 ml portions of Murashige and Skoog medium with 3% sucrose, 0.15% Gelrite, and 0.4% Difco Bacto-agar were prepared with dicamba concentrations of 10, 20, 30, 40, 50, 60, 80, 100 μM and BA concentrations of 0.01, 0.05, 0.1, 0.5, and 1.0 μM. All media were pH adjusted to 5.8, autoclaved at 121° C. for 20 minutes, cooled, and each 100 ml was poured into 4, 100 mm×15 mm petri dishes.
as §1, with “An eight dicamba concentrations×five BA” for “A three 2,4-D concentrations×six BA”, “design (40” for “design (18”, “The” for “The 72”, “After 28” for “After 27”, “another 45” for “another 35”
Duckweed fronds were grown in liquid Schenk and Hildebrandt medium containing 1% sucrose for two weeks at 23° C. under a 16 hr light/8 hr dark photoperiod with light intensity of approximately 40 μmol/m^2·sec prior to experimentation. For callus induction, three basal media were tested: Murashige and Skoog, Schenk and Hildebrandt, and N6. Benzyladenine was used as the cytokinin at a concentration of 1 μM. The auxin concentrations varied with auxin type. For the relatively strong auxins, 2,4-D and dicamba, concentrations were 0, 1, 5, 10 and 20 μM. For weak auxins, NAA and IBA, the concentrations were 0, 5, 10, 20 and 50 μM. For each medium dose-response experiment, 2 liters of basal medium were prepared with BA and the pH adjusted to 5.8. The volume was aliquoted as 20, 100 ml portions. To each of these portions, the appropriate amount of auxin was added and the medium was adjusted to 0.15% Gelrite, and 0.4% Difco Bacto-agar. The media were autoclaved for 30 minutes at 121° C., cooled and 4, 100 mm×15 mm petri dishes were poured from each 100 ml portion.
A 3 media×4 auxin×5 concentration combinations, 60 treatment, randomized dose-response experimental design was used. The design was replicated two times, with one petri dish per replication and 5 fronds per petri dish.

Spirodela species = assay: Callus induction screen across Lemnaceae strains, frond health; details: 4-5 weeks
Method: Duckweed fronds were grown in liquid Schenk and Hildebrandt medium containing 1% sucrose for two weeks at 23° C. under a 16 hr light/8 hr dark photoperiod with light intensity of approximately 40 μmol/m^2·sec prior to experimentation. For callus induction, six basal media were used: Murashige and Skoog, Schenk and Hildebrand (Schenk and Hildebrandt, Can. J. Bot. 50, 199 (1972)), Nitsch and Nitsch, N6 (Chu et al., Scientia Sinica 18, 659 (1975)), Gamborg's B5, and Hoagland's. The two plant growth regulator combinations known to elicit callus proliferation in L. gibba G3 were used: 30 μM 2,4-D and 0.02 μM BA, and 5 μM 2,4-D and 2 μM BA. For each strain, 200 ml of each basal medium was prepared with 3% sucrose, 0.15% Gelrite, and 0.4% Difco Bacto-agar. The 200 ml was divided into 2, 100 ml portions, each to be used to prepare the two plant growth regulator concentrations. The pH of all media was adjusted to 5.8, the media were autoclaved for 30 minutes at 121° C., cooled and 4, 100 mm×15 mm petri dishes were poured from each 100 ml portion.
A 6 media×2 plant growth regulator combinations, 12 treatment, random block experimental design was used for each duckweed strain tested. […] At this time the fronds were evaluated for general health (judged by color: green to yellow, and vigor of proliferation) and the frequency of callus initiation of the three types: Type I, Type II, and Type III.

[1] = test system: L. minor strains 8744 and 8627; assay: Callus induction from Lemna minor fronds, auxin and cytokinin type and concentration; details: MS medium, 6 weeks
Method: In the auxin type and concentration experiment, four auxins: 2,4-D, NAA, IBA and dicamba were tested, each at four concentrations: 2, 5, 10 and 20 μM, for their ability to induce callus formation from L. minor strains 8744 and 8627. The basal medium used was MS and media and experimental protocol was basically that followed in Example 10. Fronds used in this experiment were grown for 2 weeks prior to plating on callus induction medium under 3 different culture conditions: 1) SH medium without plant growth regulators, 2) F medium with 24 μM 2,4-D and 2 μM 2-iP, and 3) SH medium with 24 μM 2,4-D and 2 μM 2-iP. Fronds were separated, the roots cut off and then plated on induction medium. The fronds were incubated under conditions given in Example 8 for 6 weeks at which time cultures were evaluated for the presence or absence of callus induction, the degree to which the callus proliferated, and the basic morphology of the callus present.
In the cytokinin type and concentration experiment, four cytokinins: BA, kinetin, 2-iP, and thidiazuron were tested, each at five concentrations: 0.05, 0.1, 0.5, 1 and 5 μM, for their ability to induce callus formation from L. minor strains 8744 and 8627. The basal medium used was MS and the media and experimental protocol were basically as described in Example 11. Fronds used in this experiment were grown for 2 weeks prior to plating on callus induction medium under 3 different culture conditions: 1) SH medium without plant growth regulators, 2) F medium with 24 μM 2,4-D and 2 μM 2-iP, and 3) SH medium with 24 μM 2,4-D and 2 μM 2-iP. Fronds were separated, the roots cut off and then plated on induction medium. The fronds were incubated under conditions given in Example 8 for 6 weeks at which time cultures were evaluated for the presence or absence of callus induction, the degree to which the callus proliferated, and the basic morphology of the callus.

O=C(O)COc1ccc(Cl)cc1Cl [2,4-D, 2,4-dichlorophenoxyacetic acid] was tested, and the “concentrations at which callus proliferation was the most vigorous” value (Lemna gibba G3; 2,4-D x BA factorial, Murashige and Skoog medium, 62 days) was 20 to 50 µM, the “compact Type I callus induction on MS medium” value (Lemna gibba G3; auxin with 1 μM BA, five weeks) was “some degree of callus induction” and the “compact Type I callus induction on N6 medium” value (Lemna gibba G3; auxin with 1 μM BA, five weeks) was “produced callus”. The frond survival (Spirodela species; higher concentration of 2,4-D (30 μM with 0.02 μM BA)) was “did not survive”, the frond growth (Spirodela species; lower concentration of 2,4-D (5 μM with 2 μM BA)) was “did not grow well” and the “concentration giving the best callus induction” value ([1]; strain 8627, auxin experiment) was 5 µM. The “concentration giving the best callus induction” value ([1]; strain 8744, auxin experiment) was 5 µM.
